Laboratory results reported in PubChem BioAssay AID1919016 (Molecular Pharmacology Branch, DTP, NCI, 2023).
Values joined by “and” are separate entries in the source; they are usually repeats but may differ in a detail not shown here. Equal entries are not always repeated.

Test system: NCI-H196 complex spheroid growth, percent test/control
Test: Anticancer human tumor NCI-H196 cell line growth inhibition [AhR];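 further: seven days of drug exposure starting three days after plating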;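 on viability, T/C: 100% = DMSO vehicle control wells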
Conditions: for viability, T/C: stronger effect = lower value
Method in brief: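 Agents were dosed in half-log steps down from roughly clinical Cmax, or from 10 microM where Cmax was unknown, alone and with AhR antagonists. Read-out: percent test/control growth of tumor spheroids containing HUVEC and MSC stromal cells.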

[1] = curve of first compound, second compound 0.1 µM
[2] = curve of first compound, second compound 0.316 µM
[3] = curve of first compound, second compound 1 µM
[4] = curve of first compound, second compound 3.16 µM
[5] = curve of first compound, second compound 10 µM
[6] = second compound 0.1 µM, first compound 0.0316 µM
[7] = second compound 0.1 µM, first compound 0.1 µM
[8] = second compound 0.1 µM, first compound 0.316 µM
[9] = second compound 0.1 µM, first compound 1 µM
[10] = second compound 0.1 µM, first compound 3.16 µM
[11] = second compound 0.1 µM, first compound 10 µM
[12] = second compound 0.316 µM, first compound 0.0316 µM
[13] = second compound 0.316 µM, first compound 0.1 µM
[14] = second compound 0.316 µM, first compound 0.316 µM
[15] = second compound 0.316 µM, first compound 1 µM
[16] = second compound 0.316 µM, first compound 3.16 µM
[17] = second compound 0.316 µM, first compound 10 µM
[18] = second compound 1 µM, first compound 0.0316 µM
[19] = second compound 1 µM, first compound 0.1 µM
[20] = second compound 1 µM, first compound 0.316 µM
[21] = second compound 1 µM, first compound 1 µM
[22] = second compound 1 µM, first compound 3.16 µM
[23] = second compound 1 µM, first compound 10 µM
[24] = second compound 3.16 µM, first compound 0.0316 µM
[25] = second compound 3.16 µM, first compound 0.1 µM
[26] = second compound 3.16 µM, first compound 0.316 µM
[27] = second compound 3.16 µM, first compound 1 µM
[28] = second compound 3.16 µM, first compound 3.16 µM
[29] = second compound 3.16 µM, first compound 10 µM
[30] = second compound 10 µM, first compound 0.0316 µM
[31] = second compound 10 µM, first compound 0.1 µM
[32] = second compound 10 µM, first compound 0.316 µM
[33] = second compound 10 µM, first compound 1 µM
[34] = second compound 10 µM, first compound 3.16 µM
[35] = second compound 10 µM, first compound 10 µM

IC50 [1] [µM] | IC50 [2] [µM] | IC50 [3] [µM] | IC50 [4] [µM] | IC50 [5] [µM] | Structure (SMILES) | viability, T/C [6] [%] | viability, T/C [7] [%] | viability, T/C [8] [%] | viability, T/C [9] [%] | viability, T/C [10] [%] | viability, T/C [11] [%] | viability, T/C [12] [%] | viability, T/C [13] [%] | viability, T/C [14] [%] | viability, T/C [15] [%] | viability, T/C [16] [%] | viability, T/C [17] [%] | viability, T/C [18] [%] | viability, T/C [19] [%] | viability, T/C [20] [%] | also measured
> 10 | > 10 | > 10 | > 10 | > 10 | CC1(C)CCC(CN2CCN(c3ccc(C(=O)NS(=O)(=O)c4ccc(NCC5CCOCC5)c([N+](=O)[O-])c4)c(Oc4cnc5[nH]ccc5c4)c3)CC2)=C(c2ccc(Cl)cc2)C1 + Cc1ccccc1N=Nc1ccc(NC(=O)c2ccnn2C)c(C)c1 | 111 | 109 | 109 | 97 | 115 | 66 | 101 | 106 | 99.9 | 102 | 108 | 74.9 | 100 | 107 | 108 | viability, T/C [21]: 102%; viability, T/C [22]: 102%; viability, T/C [23]: 75.5%; viability, T/C [24]: 104%; viability, T/C [25]: 111%; viability, T/C [26]: 107%; viability, T/C [27]: 104%; viability, T/C [28]: 104%; viability, T/C [29]: 67.2%; viability, T/C [30]: 95.6%; viability, T/C [31]: 99.2%; viability, T/C [32]: 100%; viability, T/C [33]: 99.8%; viability, T/C [34]: 100%; viability, T/C [35]: 74.6%
– | – | – | – | – | CC1COCCN1c1cc(-c2ccnn2C)c2ccnc(-c3ccn[nH]3)c2n1 (configuration not stated) | – | – | – | – | – | – | – | – | – | – | – | – | – | – | – | viability, T/C (compound 0.00316 µM): 88.9% and 98.2% and 94.9%; viability, T/C (compound 0.01 µM): 96.8% and 97.7% and 89.9%; viability, T/C (compound 0.0316 µM): 87.6% and 92.7% and 96.8%; viability, T/C (compound 0.1 µM): 70.2% and 70.5% and 75.3%; viability, T/C (compound 0.316 µM): 67% and 59.4% and 75.4%; viability, T/C (compound 1 µM): 65.5% and 56.8% and 61.1%; IC50 (curve of compound): > 1 µM
> 10 | > 10 | > 10 | > 10 | > 10 | COc1cc(Nc2ncc3c(n2)-c2ccc(Cl)cc2C(c2c(F)cccc2OC)=NC3)ccc1C(=O)O + Cc1cncc(-c2nc(NCCc3c[nH]c4ccccc34)c3ncn(C(C)C)c3n2)c1 | 96 | 99.5 | 98.4 | 103 | 118 | 153 | 98.7 | 94.3 | 109 | 111 | 131 | 129 | 94.1 | 102 | 120 | viability, T/C [21]: 114%; viability, T/C [22]: 104%; viability, T/C [23]: 148%; viability, T/C [24]: 101%; viability, T/C [25]: 104%; viability, T/C [26]: 127%; viability, T/C [27]: 115%; viability, T/C [28]: 118%; viability, T/C [29]: 145%; viability, T/C [30]: 83.1%; viability, T/C [31]: 91.8%; viability, T/C [32]: 106%; viability, T/C [33]: 97.7%; viability, T/C [34]: 104%; viability, T/C [35]: 143%
> 10 | > 10 | > 10 | > 10 | > 10 | COc1cc(C2c3cc4c(cc3C(OC3OC5COC(C)OC5C(O)C3O)C3COC(=O)C23)OCO4)cc(OC)c1O (configuration not stated) + Cc1cncc(-c2nc(NCCc3c[nH]c4ccccc34)c3ncn(C(C)C)c3n2)c1 | 104 | 103 | 98.9 | 99.8 | 103 | 96.7 | 104 | 109 | 101 | 105 | 112 | 89.4 | 99.7 | 112 | 104 | viability, T/C [21]: 109%; viability, T/C [22]: 103%; viability, T/C [23]: 77.8%; viability, T/C [24]: 108%; viability, T/C [25]: 114%; viability, T/C [26]: 112%; viability, T/C [27]: 105%; viability, T/C [28]: 100%; viability, T/C [29]: 81.9%; viability, T/C [30]: 89.1%; viability, T/C [31]: 92%; viability, T/C [32]: 101%; viability, T/C [33]: 84.3%; viability, T/C [34]: 77.4%; viability, T/C [35]: 62%
